Read-outs that look alike come from different tables or passages of the source.
Legend:
[1] = tested on: HIV infected CD4+ T cells; experiment: ADCC assay: NK-directed killing of HIV infected CD4+ T cells; format: cell-based, human (infected with HIV-1 lab strain IIIB); conditions: for NK-directed killing of HIV infected cells mediated by CD4 binding site bnAbs (ADCC): temsavir 50 nM-0.08 nM for 16-24 hours, antibodies 5 ug/mL, Raltegravir in medium
Experimental: Isolation and preparation of target and effector cells: Peripheral blood mononuclear cells (PBMCs) were obtained by continuous-flow leukapheresis from healthy donors, isolated by ficoll-hypaque density gradient centrifugation and cryopreserved in the vapor phase of liquid nitrogen. PBMCs were rapidly thawed to room temperature in a 37° C. water bath and resuspended in RPMI 1640 media supplemented with 10% fetal calf serum. For the target cells, CD4+T lymphocytes were purified using immunomagnetic negative selection beads as per the manufacturer's instructions (StemCell Technologies). The cells were activated with phytohemagglutinin-P (Sigma; PHA-P; 5 μg/mL) for 72 hours at 37° C., 5% CO2 and then maintained under the same incubation conditions in RPMI 1640 medium supplemented with 10% fetal calf serum plus 50 U/mL recombinant IL-2. Natural Killer (NK) effector cells were purified from autologous PBMCs using immunomagnetic negative selection beads as per the manufacturer's instructions (StemCell Technologies). The cells were maintained in RPMI 1640 medium supplemented with 10% fetal calf serum and incubated at 37° C., 5% CO2 for 24 hr prior to ADCC assay.
Infection of target cells: HIV-1 lab strain IIIB was used to infect the activated CD4+T lymphocytes by spin infection at 1200×g for 1.5 hours in 24-well plates at 25° C. in the presence of 25 μg/mL DEAE-Dextran. The infected cells were collected, washed and resuspended in RPMI 1640 medium supplemented with 10% fetal calf serum plus 50 U/mL recombinant IL-2 and incubated at 37° C., 5% CO2 for 3 days until infection rates reached above 20%.
ADCC assay: HIV infected CD4^+ T cells (targets) were incubated with cell proliferation dye as per the manufacturer's instructions (eFluor670; eBioscience) and plated in 96-well U-bottom plates. Temsavir was dissolved in DMSO and diluted into RPMI 1640 medium supplemented with 10% fetal calf and serially titrated in the same medium in 5-fold increments for a dose range of 50 nM-0.08 nM. […]
The cells were then stained intracellularly for HIV-1 p24, using the Cytofix/Cytoperm Fixation/Permeabilization Kit (BD Biosciences) with subsequent addition of anti-p24 mAb (FITC anti-p24, clone KC57; Beckman Coulter/Immunotech; 1:200 final concentration) for 20-30 minutes at room temperature. […] The percentage of specific killing was calculated with the following formula: (% of p24^+ cells in Targets plus Effectors)−(% of p24^+ cells in Targets plus Effectors plus Abs)/(% of p24^+ cells in Targets alone without antibody or temsavir) by gating on live target cells.

[2] = target: T1, cell surface expressed HIV-1 envelope (Human immunodeficiency virus type 1 group M subtype B, UniProt P04578); format: cell-based, HIV-1 lab strain HxB2; conditions: for overall percentage of cells that contained bound bnAbs: 0.5 uM temsavir compared to DMSO only treated cells, FIG. 2; for binding of bnAb to the cell surface of CD4+/p24+ cells (mean fluorescent intensity, MFI): HIV infected cells treated with 0.5 uM temsavir for 24 hr, compared to DMSO only treated cells, bnAb 50 ug/mL to 0.01 ug/mL, FIG. 1
T1 construct: cell surface expressed HIV-1 envelope from a productive infection of human CD4^+ T cells; endogenous in cells; host or cells: primary human CD4+ T cells (from healthy-donor PBMCs) productively infected with HIV-1 HxB2 virus
Experimental: Preparation and HIV-1 infection of target cells: Peripheral blood mononuclear cells (PBMCs) were obtained by continuous-flow leukapheresis from healthy donors, isolated by ficoll-hypaque density gradient centrifugation and cryopreserved in the vapor phase of liquid nitrogen. PBMCs were rapidly thawed to room temperature in a 37° C. water bath and cultured in assay medium (RPMI 1640 media supplemented with 10% fetal calf serum plus 30 U/mL recombinant IL-2) containing 2 ug/mL phytohemagglutinin-P (Sigma) for three days in a humidified incubator at 37° C., 5% CO2. CD4^+ T cells were isolated by negative selection (Stemcell Technologies), washed twice and resuspended with assay medium at a final density of 1-2×10^6 cells/mL and incubated at 37° C., 5% CO2 overnight. Cells were centrifuged at 500×g for 10 minutes, resuspended with assay medium at 5×10^6 cell/mL and 200 uL (1×10^6 total cells) were distributed to 24-well tissue culture treated plates. An HIV-1 lab strain, HxB2 virus, previously propagated in human PBMC cells, was diluted with assay medium containing 50 ug/mL DEAE-dextran and 200 uL was added to the cells in the 24-well plates. The plates were centrifuged at 1,200×g for 1.5 hours and the infected cells were collected and pooled in a 50 ml conical tube. The infected cells were washed twice and resuspended in assay medium to a final density of 1-2×10^6 cells/mL and incubated at 37° C., 5% CO2 for three days.
Treatment of HIV-infected target cells with temsavir and N6 bnAbs: HIV infected cells were centrifuged at 500×g for 10 minutes, resuspended with assay medium at 3×10^6 cell/mL and 50 uL (150,000 total cells) were distributed to 96-well, U-bottom tissue-culture treated plates. […] The antibodies were eluted and diluted in buffer consisting of 150 mM Arginine, 50 mM Sodium acetate, pH 5.5, 150 mM NaCl) were serially titrated in assay medium and added to the temsavir-treated cells for a final concentration range of 50 ug/mL to 0.01 ug/mL. The plates were incubated at 37° C., 5% CO2 for 30 minutes.
Flow cytometry: The assay plates were removed from the incubator and the cells were pelleted by centrifugation at 500×g for 2 minutes at 25° C. The cells were washed twice by mixing with 200 μL of ice cold wash buffer (phosphate buffered saline containing 2% fetal calf serum) with centrifugation at 500×g for 2 minutes at 25° C. for each wash cycle. […] The stained cells were washed twice with wash buffer as indicated above, acquired on a Fortessa cytometer (BD Biosciences) and the data were analyzed by mean fluorescent intensity (MFI) using FlowJo v10.8 software (Tree Star).

COc1cnc(-n2cnc(C)n2)c2[nH]cc(C(=O)C(=O)N3CCN(C(=O)c4ccccc4)CC3)c12 [temsavir, 1-(4-benzoylpiperazin-1-yl)-2-[4-methoxy-7-(3-methyl-1,2,4-triazol-1-yl)-1H-pyrrolo[2,3-c]pyridin-3-yl]ethane-1,2-dione]
cell death of HIV infected primary cells in the absence of effector cells ([1]; effector cells eliminated from the assay, FIG. 4): does not lead to cell death
NK-directed killing of HIV infected cells mediated by CD4 binding site bnAbs (ADCC) ([1]; NK effector-to-target ratio 3:1, 24 hours, FIG. 3): Dose dependent temsavir enhancement
NK-directed killing of HIV infected cells mediated by CD4 binding site bnAbs (ADCC) ([1]; NK effector-to-target ratio 3:1, 24 hours, FIG. 3, listed as Temsavir): enhances
overall percentage of cells that contained bound bnAbs [2]: significant increase
overall percentage of cells that contained bound bnAbs ([2]; listed as Temsavir): enhancement
binding of bnAb to the cell surface of CD4+/p24+ cells (mean fluorescent intensity, MFI) [2]: enhancement

N6-LAGA: Fc binding-reduced N6 antibody, constant domain comprising L235A and G237A mutations; HC SEQ ID NO: 13
magnitude of killing (maximum), percentage of specific killing ([1]; with temsavir titration 50 nM-0.08 nM, antibody 5 ug/mL, NK effector-to-target ratio 3:1, 24 hours, FIG. 3): 25%
binding of bnAb to the cell surface of CD4+/p24+ cells (mean fluorescent intensity, MFI) [2]: substantial increase

From US20240425568A1, “COMBINATION THERAPIES FOR HIV INFECTIONS AND USES THEREOF” (VIIV HEALTHCARE COMPANY, priority 2021, published 2024)
